Laboratory results from article PMC4382590 (Biochemistry, 2015).

Legend:
ecFabI = target: T1, ecFabI (Escherichia coli, UniProt P0AEK4); experiment: X-ray crystal structure; type: binding
T1 sequence (P0AEK4 1-262): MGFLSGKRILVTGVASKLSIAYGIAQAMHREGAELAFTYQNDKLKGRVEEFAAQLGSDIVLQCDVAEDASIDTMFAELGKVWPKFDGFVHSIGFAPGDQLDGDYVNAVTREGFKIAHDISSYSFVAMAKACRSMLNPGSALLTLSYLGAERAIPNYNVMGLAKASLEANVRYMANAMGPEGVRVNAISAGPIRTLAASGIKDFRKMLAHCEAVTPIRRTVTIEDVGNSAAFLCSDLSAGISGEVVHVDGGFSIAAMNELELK

saFabI [1] = target: T2, saFabI (Staphylococcus aureus, UniProt Q6GI75); experiment: ThermoFluor thermal shift; type: binding; conditions: Tm of free enzyme 62.6
T2 sequence (Q6GI75 1-256): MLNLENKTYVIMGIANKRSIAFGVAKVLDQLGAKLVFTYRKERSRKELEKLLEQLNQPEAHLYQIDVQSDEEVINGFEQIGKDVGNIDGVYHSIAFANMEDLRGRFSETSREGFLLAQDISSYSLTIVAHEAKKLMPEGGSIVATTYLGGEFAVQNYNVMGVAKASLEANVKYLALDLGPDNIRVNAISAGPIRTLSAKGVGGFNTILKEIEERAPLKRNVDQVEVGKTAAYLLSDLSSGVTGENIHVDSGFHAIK

saFabI [2] = target: T2, saFabI; experiment: single-concentration progress curve analysis; type: biochemical
saFabI [3] = target: T2, saFabI; experiment: X-ray crystal structure; type: binding; conditions: ternary complexes with PT12, PT400, PT404, PT449 or MUT37307

Compound: N#Cc1cc(Br)ccc1Oc1ccc(Cl)cc1O [PT449]
- X-ray crystal structure (ecFabI; ternary complex with NAD+): ecFabI in complex with NAD^+ and PT449 have been deposited in the PDB

Compound: CCCCCCc1ccc(Oc2ccccc2C#N)c(O)c1 [PT119]
- Wild-type saFabI (saFabI [1]; ternary complex with NADP+): 70.4 °C

Compound: Cc1c(N)cccc1Cn1ccc(OCCc2cccs2)cc1=O [CG400549]
- Wild-type saFabI (saFabI [1]; ternary complex with NADPH): 71.2 °C

Compound: CCCCCCc1ccc(Oc2ccc([N+](=O)[O-])cc2)c(O)c1 [PT12]
- Ki (saFabI [2]): 0.05 nM

Compound: NC(=O)c1ccc[n+]([C@@H]2O[C@H](COP(=O)(O)OP(=O)(O)OC[C@H]3O[C@@H](n4cnc5c(N)ncnc54)[C@H](O)[C@@H]3O)[C@@H](O)[C@H]2O)c1 [NAD^+]
- X-ray crystal structure (ecFabI; ternary complex with PT449): ecFabI in complex with NAD^+ and PT449 have been deposited in the PDB

Compound: NC(=O)c1ccc[n+]([C@@H]2O[C@H](COP(=O)(O)OP(=O)(O)OC[C@H]3O[C@@H](n4cnc5c(N)ncnc54)[C@H](OP(=O)(O)O)[C@@H]3O)[C@@H](O)[C@H]2O)c1 [NADP^+]
- X-ray crystal structure (saFabI [3]): saFabI in complex with NADP^+ and PT12, PT400, PT404, PT449, or MUT37307

Compound: CCc1cc(O)c(Oc2ccc([N+](=O)[O-])cc2Cl)cc1F [PT404]
- Ki (saFabI [2]): 0.75 nM
